Results from patent US8993717B2, “Gadd45beta targeting agents” (Imperial Innovations Limited, priority 2009, dated 2015).
Square brackets hold non-standard residues; d marks the D form. Peptide text beside a SMILES is read from it. * marks the point of attachment. Cbz = O=C(OCc1ccccc1)*

Legend:
Gadd45β-inhibited MKK7 = target: T1, Gadd45β-inhibited MKK7 (Homo sapiens, UniProt O14733); test: MKK7 kinase assay in the presence of recombinant hGadd45β; type: biochemical; conditions: 1 nM or 5 nM peptide, 5 μM GST-hGadd45β
T1 construct: expressed in transfected cells; host or cells: HEK-293 (FLAG-MKK7); bacteria (GST-hGadd45β)
T1 sequence (O14733 1-419): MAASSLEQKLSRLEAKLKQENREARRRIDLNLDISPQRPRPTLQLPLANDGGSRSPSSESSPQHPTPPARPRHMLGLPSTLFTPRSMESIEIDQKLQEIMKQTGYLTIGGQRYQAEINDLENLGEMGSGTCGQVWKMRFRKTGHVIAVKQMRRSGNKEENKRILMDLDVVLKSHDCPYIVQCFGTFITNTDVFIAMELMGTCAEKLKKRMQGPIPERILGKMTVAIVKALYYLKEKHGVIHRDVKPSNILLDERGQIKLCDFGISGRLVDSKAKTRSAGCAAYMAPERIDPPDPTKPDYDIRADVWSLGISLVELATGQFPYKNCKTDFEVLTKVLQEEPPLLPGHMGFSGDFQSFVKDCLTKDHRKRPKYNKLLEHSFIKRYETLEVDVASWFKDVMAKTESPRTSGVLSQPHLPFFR
Method: In FIG. 6, transient transfection of pcDNA-FLAG-MKK7 in HEK-293 cells was performed using the method of Ca3(PO4)2 precipitation, essentially as described in Papa, S et al., (2004) Nat. Cell Biol. 6, 146-153 and references therein. 36 hrs after transfection, the cells were treated with 100 ng/ml phorbol 12-myristate 13-acetate (PMA) and 1 μM ionomycin for 30 min at 37° C. Cell extracts were prepared as described in example 4 and used for immunoprecipitation with anti-FLAG antibodies (binding to FLAG-MKK7) as described in Papa, S et al., (2004) Nat. Cell Biol. 6, 146-153 and references therein. Briefly, 50 μg of cell lysate from PMA-ionomycin (P/D-treated or untreated, HEK-293 cells transiently expressing FLAG-MKK7 was incubated with 10 μl of anti-FLAG M2 Affinity Gel (SIGMA) for 4 hrs at 4° C. during rotation. The immunoprecipitates were then washed 3 times in lysis buffer and twice more in kinase buffer (10 mM HEPES, 5 mM MgCl2, 1 mM MnCl2,12.5 mM β-glycerophosphate, 2 mM DTT, 4 mM NaF and 0.1 mM Na3VO4). MKK7 catalytic activity was finally measured in kinase assays by incubating FLAG-MKK7 immunoprecipitates at 30° C. for 20 min with 20 μl of kinase buffer containing 2 μM of recombinant GST-JNK1 and 5 μCi of [γ-^32P]ATP) (kinase reaction), as described in Papa, S et a., (2004) Nat. Cell Biol. 6, 146-153 and references therein.
In some reactions, to test the ability of D-tetrapeptide antagonists to disrupt the Gadd45β-MKK7 interaction and so release the catalytic activity of MKK7 from Gadd45β-afforded inhibition, FLAG-MKK7 immunoprecipitates were 1) first pre-incubated for 10 min at 30° C. with either 1 nM or 5 nM of DTP1, DTP2 or negative control (NC) D-tetrapeptides, NC1, NC2, NC3 and NC4, and 2) then incubated for another 10 min at 30° C. with or without 5 μM of a GST-fusion protein of recombinant human (h)Gadd45β (GST-hGadd45β; purified from bacterial lysates as described in Papa, S., (2007) J. Biol. Chem. 282, 19029-19041), before using them for the kinase reaction described above, as indicated in FIG. 6.
In all cases, kinase reactions were terminated by the addition of Laemmli sample buffer. […] For a further discussion of MKK7 kinase assay conditions, the reader is directed to Papa, S et al., (2007) J. Biol. Chem. 282, 19029-19041 and Papa, S et al., (2004) Nat. Cell Biol. 6, 146-153 and the references therein.

Gadd45β/MKK7 interaction [1] = target: T2, Gadd45β/MKK7 interaction (Homo sapiens, UniProt O14733); test: ELISA competition assay after 48-hr pre-incubation with human serum at 37° C.; type: binding; conditions: for stability after pre-incubation with human serum: result in words
T2 construct: The GST-fused full-length kinase was coated for 16 h at 4° C., at a concentration of 42 nM; made in house
T2 sequence (O14733 1-419): T1 sequence (O14733 1-419)
Method: In FIG. 4, Gadd45β/MKK7 binding, competition ELISA assays were carried out to determine the stability of Z-conjugated D-tetrapeptides in human serum. […] ELISA were performed as described in FIG. 3 C. Briefly, 100 μl of 42 nM of recombinant GST-MKK7 in ELISA buffer (25 mM Tris pH 7.5, 150 mM NaCl, 1 mM DTT, 1 mM EDTA) were coated onto wells of 96-well plates by overnight incubation at 4° C. After blocking with 2% of NFDM for 1 hr at 37° C., plates were washed with TPBS, and then 21 nM of recombinant, biotinylated human (h)Gadd45β were added to the wells together with increasing concentrations of tetrapeptides which had either been subjected or had not been subjected to pre-incubation with human serum, as indicated. For a further discussion of the conditions used for the competition ELISA assay, the reader is directed to Tornatore et al 2008 JMB, 378: 97-111 and the references therein.

[2] = test system: U266, KMS-11, NCI-H929, BJAB and U937 tumour cell lines; test: [3H]thymidine incorporation assay in tumour cell lines at 10 μM; type: cell-based, human; conditions: up to 144 hrs, result in words
Method: All experiments were performed in triplicate.

Gadd45β/MKK7 interaction [3] = target: T2, Gadd45β/MKK7 interaction; test: ELISA competition assay of biotin-hGadd45β binding to coated GST-MKK7; conditions: Table III, modified peptides
Method in brief: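 GST-MKK7 (42 nM) coated in Tris pH 7.5 buffer, 16 h, 4 °C; biotin-hGadd45β (21 nM) added with competitor peptides (0.01–100 nM), 1 h, 37 °C. Streptavidin-HRP/o-phenylenediamine read at 490 nm; binding expressed as % of signal without competitor.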

| SMILES | restoration of MKK7 catalytic activity (Gadd45β-inhibited MKK7) | IC50 (Gadd45β/MKK7 interaction [1]) [µM] | stability after pre-incubation with human serum (Gadd45β/MKK7 interaction [1]) | tumoricidal/cytotoxic activity in tumour cell lines [2] | % Inhibition of Gadd45β-MKK7 binding (Gadd45β/MKK7 interaction [3]) [%] |
| --- | --- | --- | --- | --- | --- |
| CC(=O)N[C@@H](Cc1ccc(O)cc1)C(=O)N[C@@H](CCC(=O)O)C(=O)N[C@@H](CCCCN)C(=O)N[C@@H](Cc1c[nH]c2ccccc12)C(N)=O [NC3, Acetyl-(L-Tyr)-(L-Glu)-(L-Lys)-(L-Trp)-NH2] (Ac-YEKW-NH2) | did not | – | – | – | – |
| CC(=O)N[C@@H](Cc1ccc(O)cc1)C(=O)N[C@@H](CC(=O)O)C(=O)N[C@@H](Cc1c[nH]cn1)C(=O)N[C@@H](C)C(N)=O [NC2, Acetyl-(L-Tyr)-(L-Asp)-(L-His)-(L-Ala)-NH2] (Ac-YDHA-NH2) | did not | – | – | – | – |
| NC(=O)[C@H](Cc1ccccc1)NC(=O)[C@H](Cc1c[nH]cn1)NC(=O)[C@H](CC(=O)O)NC(=O)[C@H](Cc1ccc(O)cc1)NC(=O)OCc1ccccc1 [Z-YDHF-NH2] (Cbz-YDHF-NH2) | – | > 10 | significant loss of activity | not | – |
| N=C(N)NCCC[C@H](NC(=O)[C@H](CCC(=O)O)NC(=O)[C@H](Cc1ccc(O)cc1)NC(=O)OCc1ccccc1)C(=O)N[C@@H](Cc1ccccc1)C(N)=O [Z-YERF-NH2] (Cbz-YERF-NH2) | – | > 10 | significant loss of activity | low activity | 78 |
| CC(=O)N[C@@H](Cc1ccc(O)cc1)C(=O)N[C@@H](CC(=O)O)C(=O)N[C@@H](CCCCN)C(=O)N[C@@H](Cc1c[nH]c2ccccc12)C(N)=O [NC4, Acetyl-(L-Tyr)-(L-Asp)-(L-Lys)-(L-Trp)-NH2] (Ac-YDKW-NH2) | did not | – | – | – | – |
| CC(=O)N[C@H](Cc1ccc(O)cc1)C(=O)N[C@H](CC(=O)O)C(=O)N[C@H](Cc1c[nH]cn1)C(=O)N[C@H](CCC(N)=O)C(N)=O [NC1, Acetyl-(D-Tyr)-(D-Asp)-(D-His)-(D-Gln)-NH2] (Ac-[dY][dD][dH][dQ]-NH2) | did not | – | – | – | – |
